Results on six cell lines are retold here after the supplement of paper PMC10307832.

Holding throughout (assay): relative viability (nuclei count vs DMSO), 5 days (fraction); higher = more cells survive
Compound in the test “KIN001-266 + Bortezomib”: CCN1CCC(CC1)N2C=C(N=N2)CNC3=CC4=C(C(=CN=C4C(=C3)Cl)C#N)NC5=CC(=C(C=C5)F)Cl [KIN001-266] + CC(C)C[C@H](NC(=O)[C@H](Cc1ccccc1)NC(=O)c1cnccn1)B(O)O [Bortezomib] (partner 0.002 µM)
The procedure, abridged: (§1)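 Each reported value is a median over duplicate plates. It expresses relative viability: treated-well nuclei count divided by vehicle-well nuclei count. Lung cancer cell lines in 1536-well plates were dosed by pin tool a day after seeding, alone with one drug or with a fixed anchor-drug dose plus five library-drug doses (not always all listed) in √10 steps, and nuclei were counted after 5 days.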

Compound in the test “KIN001-266 + Alpelisib”: CCN1CCC(CC1)N2C=C(N=N2)CNC3=CC4=C(C(=CN=C4C(=C3)Cl)C#N)NC5=CC(=C(C=C5)F)Cl [KIN001-266] + Cc1nc(NC(=O)N2CCC[C@H]2C(N)=O)sc1-c1ccnc(C(C)(C)C(F)(F)F)c1 [Alpelisib] (partner 2 µM)
In short, it runs like this:
as §1

Compound in the test “KIN001-266 + Olaparib”: CCN1CCC(CC1)N2C=C(N=N2)CNC3=CC4=C(C(=CN=C4C(=C3)Cl)C#N)NC5=CC(=C(C=C5)F)Cl [KIN001-266] + O=C(c1cc(Cc2n[nH]c(=O)c3ccccc23)ccc1F)N1CCN(C(=O)C2CC2)CC1 [Olaparib] (partner 8 µM)
In short, it runs like this:
as §1

Compound in the test “KIN001-266 + Pemetrexed”: CCN1CCC(CC1)N2C=C(N=N2)CNC3=CC4=C(C(=CN=C4C(=C3)Cl)C#N)NC5=CC(=C(C=C5)F)Cl [KIN001-266] + Nc1nc2[nH]cc(CCc3ccc(C(=O)N[C@@H](CCC(=O)O)C(=O)O)cc3)c2c(=O)[nH]1 [Pemetrexed] (partner 0.2 µM)
The procedure, abridged: as §1

Take IA-LM: the relative viability in the test with KIN001-266 + Bortezomib (first compound 0.08 µM) was determined as 0.838; with KIN001-266 + Bortezomib (first compound 0.253 µM), 0.729; with KIN001-266 + Bortezomib (first compound 0.8 µM) it was 0.94; with KIN001-266 + Bortezomib (first compound 2.53 µM), 0.736; with KIN001-266 + Bortezomib (first compound 8 µM), 0.674; with KIN001-266 + Alpelisib (first compound 0.08 µM), 1.09. Also, the relative viability with KIN001-266 + Alpelisib (first compound 0.253 µM) amounted to 0.652; with KIN001-266 + Alpelisib (first compound 0.8 µM), 0.754; in the test with KIN001-266 + Alpelisib (first compound 2.53 µM), 0.635; with KIN001-266 + Alpelisib (first compound 8 µM) it was 0.755; in the test with KIN001-266 + Olaparib (first compound 0.08 µM) it was 0.884; with KIN001-266 + Olaparib (first compound 0.253 µM), 0.791. The relative viability with KIN001-266 + Olaparib (first compound 0.8 µM) was 0.845; in the test with KIN001-266 + Olaparib (first compound 2.53 µM), 0.853; with KIN001-266 + Olaparib (first compound 8 µM), 0.625.

Take LK-2: the relative viability amounted to 0.275 in the test with KIN001-266 + Pemetrexed (first compound 0.08 µM); 0.237 with KIN001-266 + Pemetrexed (first compound 0.253 µM); 0.211 in the test with KIN001-266 + Pemetrexed (first compound 0.8 µM); 0.158 with KIN001-266 + Pemetrexed (first compound 2.53 µM); 0.273 with KIN001-266 + Pemetrexed (first compound 8 µM); 1.3 in the test with KIN001-266 + Alpelisib (first compound 0.08 µM). For the same cell line, the relative viability with KIN001-266 + Alpelisib (first compound 0.8 µM) worked out at 1.17; with KIN001-266 + Alpelisib (first compound 8 µM) it was 1.11; with KIN001-266 + Olaparib (first compound 0.08 µM), 0.879; with KIN001-266 + Olaparib (first compound 0.253 µM) it was 0.689; in the test with KIN001-266 + Olaparib (first compound 0.8 µM), 0.672; in the test with KIN001-266 + Olaparib (first compound 2.53 µM), 0.557. For the same cell line, in the test with KIN001-266 + Olaparib (first compound 8 µM), the relative viability was found to be 0.574.

For the cell line NCI-H358, the relative viability with KIN001-266 + Pemetrexed (first compound 0.08 µM) was 0.187; with KIN001-266 + Pemetrexed (first compound 0.253 µM), 0.163; in the test with KIN001-266 + Pemetrexed (first compound 0.8 µM), 0.178; with KIN001-266 + Pemetrexed (first compound 2.53 µM), 0.158; with KIN001-266 + Pemetrexed (first compound 8 µM) it was 0.146; with KIN001-266 + Alpelisib (first compound 0.08 µM), 0.825. For the same cell line, the relative viability with KIN001-266 + Alpelisib (first compound 0.253 µM) was determined as 0.774; in the test with KIN001-266 + Alpelisib (first compound 0.8 µM) it was 0.981; with KIN001-266 + Alpelisib (first compound 2.53 µM), 0.831; in the test with KIN001-266 + Alpelisib (first compound 8 µM) it was 0.43; with KIN001-266 + Olaparib (first compound 0.08 µM), 0.6; in the test with KIN001-266 + Olaparib (first compound 0.253 µM) it was 0.556. Moreover, the relative viability in the test with KIN001-266 + Olaparib (first compound 0.8 µM) came out at 0.58; with KIN001-266 + Olaparib (first compound 2.53 µM) it was 0.458; with KIN001-266 + Olaparib (first compound 8 µM), 0.325.

NCI-H522: the relative viability with KIN001-266 + Pemetrexed (first compound 0.08 µM) turned out to be 1.06; with KIN001-266 + Pemetrexed (first compound 0.253 µM), 1.01; with KIN001-266 + Pemetrexed (first compound 0.8 µM) it was 1.01; with KIN001-266 + Pemetrexed (first compound 2.53 µM), 1.06; in the test with KIN001-266 + Pemetrexed (first compound 8 µM) it was 0.932; with KIN001-266 + Olaparib (first compound 0.08 µM) it was 0.672. The relative viability worked out at 0.785 in the test with KIN001-266 + Olaparib (first compound 0.253 µM), 0.665 with KIN001-266 + Olaparib (first compound 0.8 µM), 0.559 with KIN001-266 + Olaparib (first compound 2.53 µM) and 0.483 with KIN001-266 + Olaparib (first compound 8 µM).

In the case of NCI-H727, the relative viability came to 0.843 in the test with KIN001-266 + Bortezomib (first compound 0.08 µM); 0.893 in the test with KIN001-266 + Bortezomib (first compound 0.253 µM); 0.889 with KIN001-266 + Bortezomib (first compound 0.8 µM); 0.864 in the test with KIN001-266 + Bortezomib (first compound 2.53 µM); 0.514 with KIN001-266 + Bortezomib (first compound 8 µM); 0.585 with KIN001-266 + Alpelisib (first compound 0.08 µM). The relative viability was 0.567 with KIN001-266 + Alpelisib (first compound 0.253 µM); 0.622 with KIN001-266 + Alpelisib (first compound 0.8 µM); 0.597 in the test with KIN001-266 + Alpelisib (first compound 2.53 µM); 0.329 with KIN001-266 + Alpelisib (first compound 8 µM); 0.679 with KIN001-266 + Olaparib (first compound 0.08 µM); 0.649 in the test with KIN001-266 + Olaparib (first compound 0.253 µM). Moreover, the figures for the relative viability with KIN001-266 + Olaparib (first compound 0.8 µM), in the test with KIN001-266 + Olaparib (first compound 2.53 µM) and with KIN001-266 + Olaparib (first compound 8 µM) were 0.626, 0.683 and 0.531, respectively.

Regarding NCI-H1299, the relative viability in the test with KIN001-266 + Bortezomib (first compound 0.08 µM) was 1.02; with KIN001-266 + Bortezomib (first compound 0.253 µM), 1.01; in the test with KIN001-266 + Bortezomib (first compound 0.8 µM), 0.984; in the test with KIN001-266 + Bortezomib (first compound 2.53 µM) it was 0.962; in the test with KIN001-266 + Bortezomib (first compound 8 µM), 0.882; with KIN001-266 + Alpelisib (first compound 0.08 µM) it was 1.04. The relative viability amounted to 1.05 in the test with KIN001-266 + Alpelisib (first compound 0.253 µM); 0.548 with KIN001-266 + Alpelisib (first compound 0.8 µM); 0.975 with KIN001-266 + Alpelisib (first compound 2.53 µM); 1.01 with KIN001-266 + Alpelisib (first compound 8 µM); 0.941 in the test with KIN001-266 + Olaparib (first compound 0.08 µM); 1.03 with KIN001-266 + Olaparib (first compound 0.253 µM). The relative viability in the test with KIN001-266 + Olaparib (first compound 0.8 µM) stood at 0.933; in the test with KIN001-266 + Olaparib (first compound 2.53 µM), 0.859; in the test with KIN001-266 + Olaparib (first compound 8 µM) it was 0.775.
